From the supplement of paper PMC11997997

Legend:
[1] = tested on: murine bone marrow-derived macrophages; experiment: area under cytotoxicity dose-response curve (AUC (% cytotoxicity x dose, relative)); higher = more cytotoxic; details: duration: 6 days; dose range: 0.13-80 uM, 8 points
How it was run: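 Primary murine bone marrow-derived macrophages in opaque 384-well plates were exposed to an 8-point, 2.5-fold dilution series (final 80–0.13 μM) for 6 days at 37 °C in 5% CO2. Viability was read with Promega's CellTiter-Glo luminescence assay, and percent cytotoxicity was normalised to vehicle and positive control wells. Cytotoxicity is reported as the area under the dose–response curve, calculated in GraphPad Prism version 10.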

[2] = tested on: Mycobacterium tuberculosis CDC1551 (intracellular, in murine BMDM); experiment: area under intracellular growth-inhibition dose-response curve (AUC (% inhibition x dose, relative)); higher = more potent; details: duration: 6 days; dose range: 0.13-80 uM, 8 points
How it was run: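 Macrophages derived from primary murine bone marrow were infected for 1 h at multiplicity of infection 1 with luciferase-expressing M. tuberculosis CDC1551, then treated for 6 days at final concentrations of 80–0.13 μM. Bright-Glo luciferin signal, normalised to a reference drug control and the lowest-concentration wells, gave the growth readout. Area under the growth-inhibition dose–response curve was then calculated in GraphPad Prism.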

Compound | area under cytotoxicity dose-response curve [1] | area under intracellular growth-inhibition dose-response curve [2]
CCc1cccc2sc(N3CCN(C(=O)c4ccc([N+](=O)[O-])o4)CC3)nc12 | 85.8 | 71.9
O=C(c1ccc2ccccc2c1)N1CCCC1 | 32.9 | 222
O=C(NC(=S)Nc1ccc(-c2nc3ncccc3o2)cc1)c1ccccc1F | < 0 | 138
O=C(NC1CCCCCCC1)c1ccc(Br)cc1 | < 0 | 268
COc1ccc2c(c1)c(CC(=O)OCC(=O)O)c(C)n2C(=O)c1ccc(Cl)cc1 | 47.6 | 117
O=C(N/N=C/c1ccc(O)c([N+](=O)[O-])c1)c1ccncc1 | < 0 | 256
COc1cccc2sc(N3CCN(C(=O)c4ccc([N+](=O)[O-])o4)CC3)nc12 | 57.3 | 6.52
CC1CCC(C(C)C)C(OC(=O)Cn2c(COc3ccccc3)[n+](C)c3ccccc32)C1.[Cl-] (configuration not stated) | 39.3 | 201
Cc1cccc(/C=N/NC(=O)c2ccncc2)n1 | 14 | 269
Cc1nnc(SCC2=C(C(=O)O)N3C(=O)C(NC(=O)Cn4nc(C)c(Cl)c4C)C3SC2)s1 (configuration not stated) | 82.6 | 112
COc1ccc(OCC(=O)NC(=S)Nc2ccc(N3CCOCC3)c(Cl)c2)cc1 | 123 | 173
COc1ccc(CN(C)C(=O)c2cccc(S(=O)(=O)N3CCCc4ccccc43)c2)c(OC)c1OC | 16.4 | 144
COc1ccc(CN(C)C(=O)COC(=O)c2cc([N+](=O)[O-])ccc2N2CCCC2)c(OC)c1OC | 66.2 | 31
COCC(=O)Nc1nnc(Cc2ccc(OC)cc2)s1 | 21.6 | 159
O=C(Nc1cccc(Cl)c1)NC1CC2CCC1C2 (configuration not stated) | 31.1 | 232
COc1cccc2c1C(=O)c1c(O)c3c(c(O)c1C2=O)C[C@](O)(C(C)=O)C[C@H]3O[C@@H]1C[C@@H](N)[C@@H](O)[C@@H](C)O1.Cl | 172 | 44.8
CCCCCNC(=O)CCc1ccccc1 | < 0 | 130
CCOc1ccc(-c2cnc(NCc3cccc4ccccc34)n2CCOC)cc1.O=C(O)C(=O)O | 23.1 | 66.2
Cc1cs/c(=N\C(=O)c2ccccc2)n1C | 57.5 | 102
COc1ccc(C(=O)C(C)OC(=O)CNC(=O)c2ccco2)cc1 (configuration not stated) | < 0 | 166
COc1ccc(CCNC2=C(Cl)C(=O)N(CCc3ccc(OC)c(OC)c3)C2=O)cc1OC | 92.7 | 66.8

Compound | area under cytotoxicity dose-response curve [1] | area under intracellular growth-inhibition dose-response curve [2]
CCCNC(=O)OCC12CC3CC(CC(C3)C1)C2 | 228 | 237
CC1CCN(C(=O)C2CCN(c3ncnc4c3nc3n4CCCCC3)CC2)CC1 | 35.4 | 176
C[C@@H]1C2CC(C/C2=N\NC(=O)c2ccncc2)C1(C)C (some centres not stated) | < 0 | 260
COc1cc(/C=N/NC(=O)c2ccncc2)ccc1OCC(=O)Nc1ccccc1 | < 0 | 232
COc1ccc(OC)c2sc(N3CCN(C(=O)c4ccc([N+](=O)[O-])s4)CC3)nc12 | 14.2 | 10.8
O=C(N/N=C/c1ccccn1)c1ccncc1 | 1.91 | 262
Cc1cc2oc(=O)cc(-c3ccccc3)c2c(C)c1-c1ccc(CO)cc1 | < 0 | 271
CN(C(=O)CSc1ncnc2sc3c(c12)CCC3)C1CCS(=O)(=O)C1 (configuration not stated) | 4.88 | 60.2
O=C(COc1ccccc1)N/N=C/c1ccc([N+](=O)[O-])o1 | 14.3 | 209
O=C(NCC1CCCO1)c1csc2c1CCCCC2 (configuration not stated) | 19.4 | 143
CN(C)c1ccc(Nc2ncnc3ccc(Br)cc23)cc1 | 33.3 | 121
CCCn1nnc(NC(=S)NC(=O)c2ccccc2OC)n1 | 25.9 | 64.2
Cc1ccc(OCCCC(=O)NNC(=O)c2ccncc2)cc1 | 10.4 | 268
CCCCCOc1ccc(C(=O)CCC(=O)NNC(=O)c2ccncc2)cc1 | 75.4 | 224
O=C(NCC1CCCCC1)c1ccc(Cl)nc1 | 2.72 | 258
COC(=O)C1C(O)C(C)C(O)C(C)/C=C\C=C(/C)C(=O)Nc2c(C)c(OC(C)=O)c3c(c2O)C(=O)C(C)=C2OCOC(=C23)/C(C)=C/C(C)(O)C(O)C(C)C1O (configuration not stated) | 11.5 | 216
O=C(NN=C(Cc1ccccc1)Cc1ccccc1)c1ccncc1 | 7.4 | 257
COc1ccc(NC(=S)Nc2ccc(N)c([N+](=O)[O-])c2)cc1 | 5.13 | 167
CCc1ccc(C(C)NC(=O)c2cccs2)cc1 (configuration not stated) | 120 | 123
Cc1oc(-c2cccs2)nc1CSCC(=O)N1CCC2(CC1)OCCO2 | 37.4 | 48.9
O=C(NCCN1CCOCC1)c1cc([N+](=O)[O-])cc([N+](=O)[O-])c1 | 8.42 | 168

Compound | area under cytotoxicity dose-response curve [1] | area under intracellular growth-inhibition dose-response curve [2]
Cl.N=C(NCCCCCCNC(=N)NC(=N)Nc1ccc(Cl)cc1)NC(=N)Nc1ccc(Cl)cc1 | 120 | 43
CCc1ccc(C(=O)NC2CCCCC2)s1 | 42.5 | 239
O=C(NCc1ccco1)c1cc2c(s1)CCCCC2 | 42.6 | 255
CC[C@@H](C)[C@@H]1CN([C@@H](C)CN2CCC[C@H]2CN2C(N)=NC[C@@H]2Cc2ccccc2)C(=N)N1CCc1ccc(Cl)c(Cl)c1 | < 0 | 167
C=CCN1/C(=C/c2ccc3cc(C)ccc3[n+]2CC)C=Cc2ccccc21.[Br-] | 86.8 | 102
CCC(=O)NC(=S)Nc1ccc(NC(=O)COc2ccccc2)cc1 | 69.1 | 201
CCOC(=O)[N-]c1c[n+](N2CCOCC2)no1 | 41.1 | 28
COc1ccccc1C=NNC(=O)c1ccncc1 | 9 | 266
Cc1cc(C)c2c(n1)sc1c(N3CCCCC3)ncnc12 | 73.3 | 142
COc1ccccc1OCC(=O)N/N=C/C=C/c1ccc([N+](=O)[O-])o1 | < 0 | 73.2
CC1C/C(=C/c2ccncc2)C(=O)/C(=C/c2ccncc2)C1 (configuration not stated) | 54.5 | < 0
N#C/C(=N/Nc1ccc(OC(F)(F)F)cc1)C(N)=S | 90 | 62.6
Cn1nc([N+](=O)[O-])nc1Oc1ccc(C(C)(C)C)cc1 | 40.1 | 206
CCc1ccc(/C(C)=N/NC(=O)c2ccc(-n3cnnn3)cc2)cc1 | 24.6 | < 0
Cc1c(Cl)c(C(F)F)nn1CC(=O)NC1C(=O)N2C(C(=O)O)=C(CSc3nnnn3C)CSC12 (configuration not stated) | 121 | 151
CC[C@H](CO)NCCN[C@H](CC)CO.Cl | 52.1 | 68.5
Cc1ccc(-n2c(C)cc(/C=N/NC(=O)c3ccncc3)c2C)c(C)c1 | < 0 | 268
CCCc1cc(C(N)=S)ccn1 | 8.35 | 215
Cn1nnnc1SCC1=C(C(=O)O)N2C(=O)C(NC(=O)Cn3nc(C(F)F)cc3C3CC3)C2SC1 (configuration not stated) | 38.2 | 177
